# According to patent US10251395B2, “Substituted furano-/thienocycloalkylamino-2-pyrimidine derivatives and use thereof for controlling undesired plant growth” (Bayer CropScience Aktiengesellschaft, priority 2015, dated 2019):
# What was measured:
# Alopecurus myosuroides [1] = experiment: Pre-emergence herbicidal effect; assay type: in vivo; settings: scored visually after 3 weeks
# In short: (§1)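 Using soil-surface application before emergence, the compound was delivered in a water volume equating to 600 to 800 L/ha. Plants grew in a greenhouse for 3 weeks; activity was then rated visually in percent against untreated plants, with 100% for plants killed.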
# Amaranthus retroflexus [2] = experiment: Pre-emergence herbicidal effect; assay type: in vivo; settings: scored visually after 3 weeks
# In short: as §1
# Echinochloa crus-galli [3] = experiment: Pre-emergence herbicidal effect; assay type: in vivo; settings: scored visually after 3 weeks
# In short: as §1
# Ipomoea purpurea = experiment: Pre-emergence herbicidal effect; assay type: in vivo; settings: Dosage 320 g/ha, scored visually after 3 weeks
# In short: as §1
# Lolium multiflorum [4] = experiment: Pre-emergence herbicidal effect; assay type: in vivo; settings: Dosage 320 g/ha, scored visually after 3 weeks
# In short: as §1
# Matricaria inodora [5] = experiment: Pre-emergence herbicidal effect; assay type: in vivo; settings: scored visually after 3 weeks
# In short: as §1
# Polygonum convolvulus [6] = experiment: Pre-emergence herbicidal effect; assay type: in vivo; settings: scored visually after 3 weeks
# In short: as §1
# Setaria viridis [7] = experiment: Pre-emergence herbicidal effect; assay type: in vivo; settings: scored visually after 3 weeks
# In short: as §1
# Stellaria media [8] = experiment: Pre-emergence herbicidal effect; assay type: in vivo; settings: scored visually after 3 weeks
# In short: as §1
# Veronica persica [9] = experiment: Pre-emergence herbicidal effect; assay type: in vivo; settings: scored visually after 3 weeks
# In short: as §1
# Viola tricolor [10] = experiment: Pre-emergence herbicidal effect; assay type: in vivo; settings: scored visually after 3 weeks
# In short: as §1
# Abutilon theophrasti [11] = experiment: Post-emergence herbicidal effect; assay type: in vivo; settings: assessed visually after about 3 weeks vs untreated controls
# In short: (§2)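 Greenhouse weeds grown in sandy loam were sprayed at the one-leaf stage, 2–3 weeks after sowing, with WP or EC formulations in 600–800 L/ha water plus 0.2% wetting agent. Damage was scored visually after about 3 weeks as percent activity relative to untreated controls, where 100% means the plants died.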
# Amaranthus retroflexus [12] = experiment: Post-emergence herbicidal effect; assay type: in vivo; settings: assessed visually after about 3 weeks vs untreated controls
# In short: as §2
# Matricaria inodora [13] = experiment: Post-emergence herbicidal effect; assay type: in vivo; settings: assessed visually after about 3 weeks vs untreated controls
# In short: as §2
# Setaria viridis [14] = experiment: Post-emergence herbicidal effect; assay type: in vivo; settings: assessed visually after about 3 weeks vs untreated controls
# In short: as §2
# Veronica persica [15] = experiment: Post-emergence herbicidal effect; assay type: in vivo; settings: assessed visually after about 3 weeks vs untreated controls
# In short: as §2
# Viola tricolor [16] = experiment: Post-emergence herbicidal effect; assay type: in vivo; settings: assessed visually after about 3 weeks vs untreated controls
# In short: as §2
# Cyperus esculentus = experiment: Pre-emergence herbicidal effect; assay type: in vivo; settings: Dosage 320 g/ha, scored visually after 3 weeks
# In short: as §1
# Echinochloa crus-galli [17] = experiment: Post-emergence herbicidal effect; assay type: in vivo; settings: assessed visually after about 3 weeks vs untreated controls
# In short: as §2
# Polygonum convolvulus [18] = experiment: Post-emergence herbicidal effect; assay type: in vivo; settings: 320 g/ha, assessed visually after about 3 weeks vs untreated controls
# In short: as §2
# Stellaria media [19] = experiment: Post-emergence herbicidal effect; assay type: in vivo; settings: assessed visually after about 3 weeks vs untreated controls
# In short: as §2
# Abutilon theophrasti [20] = experiment: Pre-emergence herbicidal effect; assay type: in vivo; settings: scored visually after 3 weeks
# In short: as §1
# Alopecurus myosuroides [21] = experiment: Post-emergence herbicidal effect; assay type: in vivo; settings: 320 g/ha, assessed visually after about 3 weeks vs untreated controls
# In short: as §2
# Lolium multiflorum [22] = experiment: Post-emergence herbicidal effect; assay type: in vivo; settings: 320 g/ha, assessed visually after about 3 weeks vs untreated controls
# In short: as §2
# logP (HCOOH) = assay type: physicochemical; settings: HCOOH
# From the text: Table 2 (physicochemical characterization of selected synthesis examples)
SMILES,ALOMY pre-emergence efficacy (herbicidal activity) (Alopecurus myosuroides [1]; Dosage 80 g/ha) [%],ALOMY pre-emergence efficacy (herbicidal activity) (Alopecurus myosuroides [1]; Dosage 320 g/ha) [%],AMARE pre-emergence efficacy (herbicidal activity) (Amaranthus retroflexus [2]; Dosage 320 g/ha) [%],ECHCG pre-emergence efficacy (herbicidal activity) (Echinochloa crus-galli [3]; Dosage 320 g/ha) [%],LOLMU pre-emergence efficacy (herbicidal activity) (Lolium multiflorum [4]) [%],MATIN pre-emergence efficacy (herbicidal activity) (Matricaria inodora [5]; Dosage 80 g/ha) [%],MATIN pre-emergence efficacy (herbicidal activity) (Matricaria inodora [5]; Dosage 320 g/ha) [%],POLCO pre-emergence efficacy (herbicidal activity) (Polygonum convolvulus [6]; Dosage 320 g/ha) [%],SETVI pre-emergence efficacy (herbicidal activity) (Setaria viridis [7]; Dosage 80 g/ha) [%],SETVI pre-emergence efficacy (herbicidal activity) (Setaria viridis [7]; Dosage 320 g/ha) [%],STEME pre-emergence efficacy (herbicidal activity) (Stellaria media [8]; Dosage 80 g/ha) [%],STEME pre-emergence efficacy (herbicidal activity) (Stellaria media [8]; Dosage 320 g/ha) [%],VERPE pre-emergence efficacy (herbicidal activity) (Veronica persica [9]; Dosage 80 g/ha) [%],VERPE pre-emergence efficacy (herbicidal activity) (Veronica persica [9]; Dosage 320 g/ha) [%],VIOTR pre-emergence efficacy (herbicidal activity) (Viola tricolor [10]; Dosage 80 g/ha) [%],VIOTR pre-emergence efficacy (herbicidal activity) (Viola tricolor [10]; Dosage 320 g/ha) [%],post-emergence efficacy ABUTH (Abutilon theophrasti [11]; 320 g/ha) [%],post-emergence efficacy AMARE (Amaranthus retroflexus [12]; 320 g/ha) [%],post-emergence efficacy VERPE (Veronica persica [15]; 320 g/ha) [%],post-emergence efficacy VIOTR (Viola tricolor [16]; 320 g/ha) [%],other results
C/C(=N/OCc1ccccc1)c1cnc(NC2CCCc3sc(C)cc32)nc1N (racemic) [compound 291],60,90,100,80,60,100,100,70,90,100,100,100,100,100,90,100,90,80,60,80,PHBPU pre-emergence efficacy (herbicidal activity) (Ipomoea purpurea): 100%; post-emergence efficacy ABUTH (Abutilon theophrasti [11]; 80 g/ha): 80%; post-emergence efficacy MATIN (Matricaria inodora [13]; 320 g/ha): 80%; post-emergence efficacy SETVI (Setaria viridis [14]; 80 g/ha): 60%; post-emergence efficacy SETVI (Setaria viridis [14]; 320 g/ha): 80%; post-emergence efficacy VIOTR (Viola tricolor [16]; 80 g/ha): 80%
Cc1cc2c(s1)CCCC2Nc1nc(N)c([S+](C)[O-])c(C(F)F)n1 (racemic) [compound 264],60,60,100,100,60,90,100,100,80,90,100,100,100,100,100,100,90,90,90,90,AMARE pre-emergence efficacy (herbicidal activity) (Amaranthus retroflexus [2]; Dosage 80 g/ha): 100%; CYPES pre-emergence efficacy (herbicidal activity) (Cyperus esculentus): 100%; post-emergence efficacy AMARE (Amaranthus retroflexus [12]; 80 g/ha): 90%; post-emergence efficacy ECHCG (Echinochloa crus-galli [17]; 320 g/ha): 90%; post-emergence efficacy MATIN (Matricaria inodora [13]; 80 g/ha): 80%; post-emergence efficacy MATIN (Matricaria inodora [13]; 320 g/ha): 90%; post-emergence efficacy POLCO (Polygonum convolvulus [18]): 80%; post-emergence efficacy SETVI (Setaria viridis [14]; 320 g/ha): 80%; post-emergence efficacy STEME (Stellaria media [19]; 80 g/ha): 100%; post-emergence efficacy STEME (Stellaria media [19]; 320 g/ha): 100%; post-emergence efficacy VERPE (Veronica persica [15]; 80 g/ha): 90%; post-emergence efficacy VIOTR (Viola tricolor [16]; 80 g/ha): 90%
Cc1cc2c(s1)C(Nc1ncc(S(C)(=O)=O)c(N)n1)CCC2 (racemic) [compound 19],–,100,100,100,–,100,100,80,100,100,100,100,100,100,100,100,90,90,100,100,ABUTH pre-emergence efficacy (herbicidal activity) (Abutilon theophrasti [20]; Dosage 80 g/ha): 80%; ABUTH pre-emergence efficacy (herbicidal activity) (Abutilon theophrasti [20]; Dosage 320 g/ha): 100%; AMARE pre-emergence efficacy (herbicidal activity) (Amaranthus retroflexus [2]; Dosage 80 g/ha): 100%; CYPES pre-emergence efficacy (herbicidal activity) (Cyperus esculentus): 80%; ECHCG pre-emergence efficacy (herbicidal activity) (Echinochloa crus-galli [3]; Dosage 80 g/ha): 100%; post-emergence efficacy ABUTH (Abutilon theophrasti [11]; 80 g/ha): 90%; post-emergence efficacy ALOMY (Alopecurus myosuroides [21]): 90%; post-emergence efficacy AMARE (Amaranthus retroflexus [12]; 80 g/ha): 80%; post-emergence efficacy ECHCG (Echinochloa crus-galli [17]; 80 g/ha): 100%; post-emergence efficacy ECHCG (Echinochloa crus-galli [17]; 320 g/ha): 100%; post-emergence efficacy LOLMU (Lolium multiflorum [22]): 80%; post-emergence efficacy SETVI (Setaria viridis [14]; 80 g/ha): 90%; post-emergence efficacy SETVI (Setaria viridis [14]; 320 g/ha): 100%; post-emergence efficacy STEME (Stellaria media [19]; 80 g/ha): 80%; post-emergence efficacy STEME (Stellaria media [19]; 320 g/ha): 100%; post-emergence efficacy VERPE (Veronica persica [15]; 80 g/ha): 90%; post-emergence efficacy VIOTR (Viola tricolor [16]; 80 g/ha): 90%
O=S1(=O)CCCc2nc(N[C@@H]3CCCc4sccc43)ncc21 [compound 73],80,90,100,100,100,100,100,100,80,100,100,100,100,100,–,100,–,80,100,60,AMARE pre-emergence efficacy (herbicidal activity) (Amaranthus retroflexus [2]; Dosage 80 g/ha): 100%; CYPES pre-emergence efficacy (herbicidal activity) (Cyperus esculentus): 100%; ECHCG pre-emergence efficacy (herbicidal activity) (Echinochloa crus-galli [3]; Dosage 80 g/ha): 100%; POLCO pre-emergence efficacy (herbicidal activity) (Polygonum convolvulus [6]; Dosage 80 g/ha): 100%; post-emergence efficacy ECHCG (Echinochloa crus-galli [17]; 320 g/ha): 100%; post-emergence efficacy MATIN (Matricaria inodora [13]; 80 g/ha): 100%; post-emergence efficacy MATIN (Matricaria inodora [13]; 320 g/ha): 100%; post-emergence efficacy STEME (Stellaria media [19]; 80 g/ha): 90%; post-emergence efficacy STEME (Stellaria media [19]; 320 g/ha): 100%; post-emergence efficacy VERPE (Veronica persica [15]; 80 g/ha): 80%; logP (HCOOH) (logP (HCOOH)): oily; logP (HCOOH): 2.38;
